Assay results taken from patent US20050026903A1, “CCK-1 receptor modulators” (priority 2003, published 2005).
Structures can show the parent of a compound that is named as a salt. Where two headings read alike, the source gives them in different places. One block for each molecule: values may come before it.

Experiments:
CCK-1 receptor = target: T1, CCK-1 receptor (Homo sapiens, UniProt P32238); test: CCK-1 receptor radioligand binding assay ([125I]-BH-CCK-8S competition, membranes of stably transfected CHO-K1 cells)
T1 construct: expressed in transfected cells; membranes
T1 sequence (P32238 1-428): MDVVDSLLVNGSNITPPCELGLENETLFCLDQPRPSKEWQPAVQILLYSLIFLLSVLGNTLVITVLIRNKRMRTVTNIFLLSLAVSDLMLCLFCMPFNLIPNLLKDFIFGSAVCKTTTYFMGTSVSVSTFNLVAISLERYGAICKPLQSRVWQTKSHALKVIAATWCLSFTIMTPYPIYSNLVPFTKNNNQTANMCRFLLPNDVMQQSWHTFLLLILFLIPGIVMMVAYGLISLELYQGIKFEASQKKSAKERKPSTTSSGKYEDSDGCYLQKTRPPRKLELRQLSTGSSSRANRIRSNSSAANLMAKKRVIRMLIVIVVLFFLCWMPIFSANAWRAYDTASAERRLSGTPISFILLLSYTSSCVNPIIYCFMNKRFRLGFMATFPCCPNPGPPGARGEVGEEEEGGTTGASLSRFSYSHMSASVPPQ
Experimental: CHO-K1 cells that had undergone stable transfection with the CCK-1 receptor were grown in DMEM supplemented with L-glutamine (2 mM), penicillin (50 units/mL) and streptomycin (50 μg/mL). Cells were cultured under continuous G418 selection (2 mM) and were harvested using a rubber cell scraper. CHO-K1 cells were sub-cultured a maximum of ten times before being reseeded from the original stocks.
Membranes were prepared from the stably transfected CHO-K1 cells. Frozen cell pellets (−40° C.) were thawed in 14 mL of buffer A (10 mM HEPES, 130 mM NaCl, 4.7 mM KCl, 5 mM MgCl, 1 mM EGTA and 15.4 mg/100 mL bacitracin at pH 7.2), adapted from Harper et al. (Br. J. Pharmacol. (1996) 118, pp 1717-1726). The thawed pellets were homogenized using a Polytron PT-10 (7×1 s). […]
All assays were conducted in 96-well plates (GF/B millipore filter plates) using buffer A, with 0.3 μM PD-134,308, for the dilutions. […] Total binding of [125I]—BH—CCK-8S was determined in the presence of 15 μL of buffer A. Non-specific binding of [125I]—BH—CCK-8S was determined in the presence of 15 μL of 100 μM 2-naphthalenesulphonyl L-aspartyl-(2-phenethyl)amide (2-NAP: see R. A. Hull et al., Br. J. Pharmacol. (1993) 108, pp 734-740), a CCK-1 receptor selective antagonist that is structurally unrelated to the radioligand [125I]—BH—CCK-8S. […] Bound radioactivity was determined using a gamma counter (count time=1 min). […]

SMILES: COc1ccc(-n2nc(C[C@H](C([O])=O)c3cccc(C)c3)cc2-c2ccc(Cl)c(Cl)c2)cc1 (as salt: sodium) [Example 1, (S)-Sodium; 3-[5-(3,4-dichloro-phenyl)-1-(4-methoxy-phenyl)-1H-pyrazol-3-yl]-2-m-tolyl-propionate]
melting point: 295.5 to 297.5 °C

Ki (CCK-1 receptor; [125I]-BH-CCK-8S competition, membranes of CHO-K1 cells stably transfected with CCK-1 receptor, 0.3 μM PD-134,308 present, read-out: pKi (converted)): 6.31 nM
SMILES: COc1ccc(-n2nc(CC(C(=O)O)c3cccc4ccccc34)cc2-c2ccc3c(c2)OCO3)cc1 (racemic) [Example 27, 3-[5-Benzo[1,3]dioxol-5-yl-1-(4-methoxy-phenyl)-1H-pyrazol-3-yl]-2-naphthalen-1-yl-propionic acid]

SMILES: COc1ccc(-n2nc(C[C@H](C([O])=O)c3cccc(C)c3)cc2-c2ccc(Cl)c(Cl)c2)cc1 [Example 1, (S)-Sodium; 3-[5-(3,4-dichloro-phenyl)-1-(4-methoxy-phenyl)-1H-pyrazol-3-yl]-2-m-tolyl-propionate]
Ki (CCK-1 receptor): 10 nM
